We go through 1 molecule from patent US9561214B2, “Method of treatment using inhibitors of mitosis” (Array BioPharma Inc., priority 2008, dated 2017).

A short description of data set [1]: Determination of MTD in nude mice (HT-29 xenograft study). To be noted: mouse, in vivo; female nude mice with subcutaneous HT-29 xenografts; dissolved in normal saline. As to the method: Female nude mice were implanted subcutaneously with 5×10^6 HT-29 cells in 100 μL PBS. Ten days later, tumors were measured and mice randomized into groups of three with average tumor volume in each group of approximately 240 mm^3. Compound 4 was dissolved in normal saline immediately before dosing. It was determined that 20 mg/kg was the MTD for Compound 4. Dose volume was 10 mL/kg. Dosing was vehicle alone on day 1; and Compound 4 at 20 mg/kg on day 1; and 20 mg/kg on days 1 and 3. At various time points after dosing (24, 48, 72, 96, 120 and 144 hours), mice were euthanized by CO2 inhalation, and the tumors were harvested and immediately placed in formalin. The vehicle control group samples were collected 24 and 72 hours after dosing. The day 1 group samples were collected 24, 48, 72 and 96 hours after that dose. The day 1 and day 3 group samples were collected 72, 96, 120 and 144 hours after the first dose. Paraffin blocks of tumor tissue were prepared by standard procedures. […] Spindle structures were manually counted in three 40× areas of each sample, using a fluorescent microscope. Apoptosis was quantitated by manual counting of TUNEL positive cells, also in three 40× areas of each sample (TUNEL staining using the In Situ Cell Death Detection Kit, AP from Roche).

Data set [2] can be described thus: Tumor growth inhibition on different dosing schedules (HT-29), tolerability. Particulars: 10 mg/kg IP on days 1, 2, 3, 4 and 5; female nude mice with HT-29 xenografts. The format is in vivo. As to the method:
Female nude mice were implanted subcutaneously with 5×10^6 HT-29 cells in 100 μL PBS. Eleven to fourteen days later, tumors were measured and mice randomized into groups of seven with average tumor volume in each group of approximately 230 mm^3. Compound 4 was dissolved in normal saline immediately prior to dosing, and administered IP at a volume of 10 mL/kg. Dosing was vehicle alone on day 1 and day 2; and Compound 4 at 20 mg/kg on day 1; 20 mg/kg on days 1 and 2; 20 mg/kg on days 1 and 3; 5 mg/kg on days 1, 2 and 3; 10 mg/kg on days 1, 2 and 3; 10 mg/kg on days 1, 2, 3, 4 and 5; 10 mg/kg on days 1 and 2; and 10 mg/kg on days 1 and 3. Animal weights and tumor volumes were measured (using electronic calipers) twice a week. Tumor volume was calculated using the formula: volume=(width^2×length)/2. Dosing at 10 mg/kg on days 1, 2, 3, 4 and 5 was not tolerated (greater than 20% weight loss and/or death in some of the mice).

Data set [3] can be described thus: Determination of MTD in a Phase 1 study in patients with solid tumors. The format is in vivo. An excerpt: A total of 13 patients with various solid tumors and with a median age of 66 years (range 40-79 years old) were enrolled in a human phase 1 clinical trial (see “Phase I Safety and Pharmacokinetic Study of ARRY-520 in Solid Tumors.” http://clinicaltrials.gov/ct2/show/NCT00462358, herein incorporated by reference). The solid tumors treated were breast cancer (2), colorectal cancer (2), non-small cell lung cancer (2), pancreatic cancer (2), bladder cancer, salivary gland cancer (adenoid cystic), esophageal cancer, mesothelioma cancer, and a mixed small cell lung cancer/non-small cell lung cancer. Compound 4 was provided for administration as a lyophilized powder contained in a Type 1 clear glass vial for IV use. The dose levels administered were 1.25 and 1.6 mg/m^2/day of Compound 4 on Days 1 and 2 every two weeks.

As for `CON(C)C(=O)N1N=C(c2cc(F)ccc2F)S[C@@]1(CCCN)c1ccccc1` [Compound 4, (S)-2-(3-aminopropyl)-5-(2,5-difluorophenyl)-N-methoxy-N-methyl-2-phenyl-1,3,4-thiadiazole-3(2H)-carboxamide], the MTD in data set [1] stood at 20 mg/kg. For the same molecule, in data set [2], the “tolerability of dosing schedule” value is on record as “not tolerated” and the “weight loss and/or death in some of the mice” value is “greater than 20%”. The same molecule returned an MTD in data set [3] (IV on Days 1 and 2 every two weeks, 13 patients with solid tumors, dose levels 1.25 and 1.6 mg/m^2/day) of 1.25 mg/m^2/day. For the same molecule, in data set [3] (IV on Days 1 and 2 every two weeks, patients with solid tumors), the “MTD, cumulative dose per cycle” value was 2.5 mg/m^2. Also, in data set [3] (human, in vivo, iv), the DLTs entry was “Grade 3 hyponatremia, anorexia, AST increase and febrile neutropenia”.
